# pKi: −log10 of the molar value.
# Experiments:
# [1] = Compound was evaluated for in vitro inhibition of Testosterone 5 alpha-Reductase using substrate concentration 3 x 10e-7 M; set-up: species or system Rattus norvegicus
# [2] = species on record: Rattus norvegicus; test: Comparative activity against Testosterone 5 alpha-Reductase evaluated by setting Ki of 7-(2-Hydroxy-1-methyl-ethyl)-1,4a,6a-trimethyl-hexadecahydro-indeno[5,4-f]quinolin-2-one at 1
Structure (SMILES),pKi [1],Relative activity [2]
CC(CO)C1CCC2C3CC[C@H]4N(C)C(=O)OCC4(C)C3CCC12C (stereo not given in full),6.92,
CC(CO)C1CCC2C3CC[C@H]4N(C)C(=O)CCC4(C)C3CCC12C (stereo not given in full),8.42,1
CC(CO)C1CCC2C3CC[C@H]4N(C)C(=S)OCC4(C)C3CCC12C (stereo not given in full),6.40,
CCN(CC)C(=O)[C@H]1CC[C@H]2[C@@H]3CC[C@H]4N(C)C(=O)CC[C@]4(C)[C@H]3CC[C@]12C,8.14,

# Source: ChEMBL document CHEMBL1122894, “Preparation of 20-(hydroxymethyl)-4-methyl-4-aza-2-oxa-5 alpha-pregnan-3-one as an inhibitor of testosterone 5 alpha-reductase” (J Med Chem, 1985)
